Patent US10604473B2, “Lipids that increase insulin sensitivity and methods of using the same” (Beth Israel Deaconess Medical Center, Inc., priority 2013, dated 2020)

What was measured:
STC-1 cells [1] = assay: GLP-1 secretion from STC-1 enteroendocrine cells (ELISA); type: cell-based
Method: For the experiments summarized in FIG. 41 STC-1 cells were incubated with vehicle (DMSO), 9-PAHSA, 5-PAHSA or 9-OAHSA at the indicated concentrations or lineolic acid (100 uM) as a positive control. Media was harvested and GLP-1 was measured by ELISA.
For the experiments summarized in FIG. 42, the same protocol as described for FIG. 41 was used, except in this experiment a time course was performed. For both FIG. 41 and FIG. 42, for GLP-1 secretion STC1 cells were washed 3× with serum free culture media followed by stimulation with FAHFAs or vehicle at the indicated concentrations and timepoints. Levels of active GLP-1 were measured by ELISA.

STC-1 cells [2] = assay: ERK phosphorylation in STC-1 cells (immunoblot); type: cell-based; settings: 15 minutes stimulation
Method: For the experiments summarized in FIG. 40, STC-1 cells were incubated with 9-PAHSA, 5-PAHSA or 9-OAHSA at the indicated concentrations. Cells were harvested and lysed and proteins were separated by SDS PAGE and transferred onto nitrocellulose filters. The phosphorylation of ERK and the amount of total ERK was determined by immunoblotting with antibodies specific for total or phosphor-ERK. DMSO was the control. For ERK phosphorylation, cells were serum deprived overnight and stimulated with FAHFAs or vehicle as indicated for 15 minutes followed by lysis in RIPA buffer and analysis by SDS-PAGE

[3] = FAHFA biosynthesis (FA-CoA:HFA acyltransferase) assay in tissue lysates; type: biochemical; settings: 9-HSA and oleoyl-CoA 10 μM, increasing doses of inhibitor
Method: After first establishing that FA-CoA:HFA acyltransferase activity was membrane-localized in liver (not shown), membrane fractions from liver or WAT tissue lysate were isolated by ultracentrifugation, then resuspended the pellets in PBS buffer and diluted to 1 mg/ml protein concentration. […] Formation of 9-OAHSA was measured by MS/MS, with which the appearance of the parent ion m/z 563 was monitored.
In light of the above results acyltransferase families that have been reported to have a membrane-bound localization and to have the ability to conjugate FA-CoA to a hydrophobic alcohol were targeted. Two of the enzymes, DGAT1 and ACAT, had selective inhibitors that were commercially available, A922500 [20] and CI976 [21], which were used to test their ability to reduce FAHFA production in the biosynthesis assay (inhibitors purchased from Tocris Bioscience).

[4] = FAHFA hydrolysis assay, pancreas membrane lysate; type: biochemical
Text: (§1) The experiment was repeated with either liver or pancreas membrane lysate.

[5] = FAHFA hydrolysis assay (9-PAHSA to 9-HSA), liver lysate
Method: To establish whether or not FAHFA can be enzymatically degraded, an LC-MS-based in vitro activity assay was developed to measure the hydrolysis of 9-PAHSA to 9-HSA. […] Liver lysate (1 mg/ml protein) was incubated with 100 μM 9-PAHSA at 37° C. for two hours. The reaction mixture was then extracted with one volume ethyl acetate, concentrated under nitrogen gas stream, and reconstituted in 1:1 chloroform:methanol for MS analysis.

[6] = system: carboxyl ester lipase (CEL); assay: FAHFA hydrolysis assay, CEL-transfected HEK293T cell lysate; type: biochemical
Method: Plasmid expression clones for these enzymes were obtained, which were under the control of the cytomegalovirus promoter (from the Cravatt lab), with which we transfected HEK293T cells to assess the ability of these enzymes to hydrolyze 9-PAHSA. For the activity assays, cell lysates were diluted according to the relative expression of the three clones according to ABP intensities.
as §1

3T3-L1 adipocytes = assay: Glucose transport in 3T3-L1 adipocytes; type: cell-based; settings: chronic treatment
Method: FIGS. 54A-D show glucose uptake regulation by PAHSAs and Glut4 translocation via GPR120. FIG. 54A is a bar graph showing insulin-stimulated glucose transport in 3T3-L1 adipocytes treated 9-PAHSA (20 μM) or vehicle (DMSO) control for 6 days. n=6 per group, *p<0.05 compared to vehicle by t-test. FIG. 54B is a bar graph showing insulin (10 nM)-stimulated glucose transport in 3T3-L1 adipocytes transfected with control siRNA or GPR120 siRNA and treated 5-PAHSA (10 μM), 9-PAHSA (10 μM) or vehicle (DMSO) control for 2 days. n=3 per group, *p<0.05 compared to DMSO+control siRNA or GPR120 siRNA alone, $p<0.05 compared to control siRNA or GPR120 siRNA+insulin and GPR120 siRNA+insulin+PAHSA by t-test. FIG. 54C is a panel showing Glut4 plasma membrane translocation in 3T3-L1 adipocytes transfected with control siRNA or GPR120 siRNA and treated with 9-PAHSA in the presence or absence of insulin. 6 separate experiments were carried out without RNAi and 3 experiments with RNAi; each experiment had greater than 50 cells per experimental condition. FIG. 54D is a bar graph showing quantification of Glut4 translocation in panel C. *p<0.05 compared to control siRNA+insulin and GPR120 siRNA+insulin+9-PAHSA by t-test. All data are presented as mean±s.e.m. See also FIG. 57.
For all cell culture experiments, FAHFAs were solubilized in DMSO at a concentration of 20 mM and further diluted in assay buffer or cell culture media to the working concentrations indicated for each assay. In all instances an equivalent volume of vehicle (DMSO) was added to control treatment groups.

## CCCCCCCC/C=C\CCCCCCCC(=O)OC(CCCCCCCCC)CCCCCCCC(=O)O (stereo not drawn) [9-OAHSA]
STC-1 cells [1]
  GLP-1 secretion: induce GLP-1 secretion
STC-1 cells [2]
  ERK phosphorylation: induce ERK phosphorylation

## O=C(Nc1ccccc1)Nc1ccc(-c2ccc(C(=O)[C@@H]3CCC[C@H]3C(=O)O)cc2)cc1 [A922500]
[3]
  9-OAHSA levels (FAHFA production): no change in 9-OAHSA levels

## CCCCCCCCCCC(C)(C)C(=O)Nc1c(OC)cc(OC)cc1OC [CI976]
[3]
  9-OAHSA levels (FAHFA production): no change in 9-OAHSA levels

## C[C@H](CCC(=O)NCCS(=O)(=O)O)[C@H]1CC[C@H]2[C@@H]3[C@H](O)C[C@@H]4C[C@H](O)CC[C@]4(C)[C@H]3C[C@H](O)[C@]12C [NaTC, sodium taurocholate]
[4]
  bile-salt activation of FAHFA hydrolysis: markedly increased
[5]
  bile-salt activation of FAHFA hydrolysis: not enhanced
[6]
  bile-salt activation of FAHFA hydrolysis: enhanced

## CCCCCCCCC(O)CCCCCCCCC(=O)O (stereo not drawn) [hydroxystearic acid]
3T3-L1 adipocytes
  insulin-stimulated glucose transport: impaired insulin-stimulated glucose transport

## CCCCCCCCCCCCCCCC(=O)O [palmitic acid]
3T3-L1 adipocytes
  insulin-stimulated glucose transport: impaired insulin-stimulated glucose transport
